Assays:
[1] = molecular target: T1, Tyrosine-protein kinase JAK2 (Homo sapiens, UniProt O60674); assay: Inhibition of N-terminal His tagged human JAK2 (826 to 1132 end residues) catalytic domain expressed in baculovirus expression system at 1 uM in presence of 1 mM ATP relative to control
[2] = molecular target: Tyrosine-protein kinase JAK3 (Homo sapiens) (UniProt P52333); assay: Inhibition of N-terminal His tagged human JAK3 (795 to 1124 end residues) catalytic domain expressed in baculovirus expression system at 1 uM in presence of ATP at its Km level relative to control
[3] = molecular target: Dual specificity mitogen-activated protein kinase kinase 5 (Homo sapiens) (UniProt Q13163); assay: Inhibition of N-terminal GST tagged full length human MAP2K5 (1 to 448 end residues) co-expressing His tagged MAP3K3/ CDC37/HSP90 expressed in baculovirus expression system at 1 uM in presence of ATP at its Km level relative to control
[4] = molecular target: MAP/microtubule affinity-regulating kinase 4 (Homo sapiens) (UniProt Q96L34); assay: Inhibition of N-terminal GST tagged full length human MARK4 (1 to 688 end residues) expressed in baculovirus expression system at 1 uM in presence of ATP at its Km level relative to control
[5] = molecular target: T2, Tyrosine-protein kinase JAK1 (Homo sapiens, UniProt P23458); assay: Inhibition of N-terminal GST tagged human JAK1 (850 to 1154 end residues) catalytic domain expressed in baculovirus expression system at 1 uM in presence of 1 mM ATP relative to control
T2 sequence (P23458 whole entry, the tested form may be a part): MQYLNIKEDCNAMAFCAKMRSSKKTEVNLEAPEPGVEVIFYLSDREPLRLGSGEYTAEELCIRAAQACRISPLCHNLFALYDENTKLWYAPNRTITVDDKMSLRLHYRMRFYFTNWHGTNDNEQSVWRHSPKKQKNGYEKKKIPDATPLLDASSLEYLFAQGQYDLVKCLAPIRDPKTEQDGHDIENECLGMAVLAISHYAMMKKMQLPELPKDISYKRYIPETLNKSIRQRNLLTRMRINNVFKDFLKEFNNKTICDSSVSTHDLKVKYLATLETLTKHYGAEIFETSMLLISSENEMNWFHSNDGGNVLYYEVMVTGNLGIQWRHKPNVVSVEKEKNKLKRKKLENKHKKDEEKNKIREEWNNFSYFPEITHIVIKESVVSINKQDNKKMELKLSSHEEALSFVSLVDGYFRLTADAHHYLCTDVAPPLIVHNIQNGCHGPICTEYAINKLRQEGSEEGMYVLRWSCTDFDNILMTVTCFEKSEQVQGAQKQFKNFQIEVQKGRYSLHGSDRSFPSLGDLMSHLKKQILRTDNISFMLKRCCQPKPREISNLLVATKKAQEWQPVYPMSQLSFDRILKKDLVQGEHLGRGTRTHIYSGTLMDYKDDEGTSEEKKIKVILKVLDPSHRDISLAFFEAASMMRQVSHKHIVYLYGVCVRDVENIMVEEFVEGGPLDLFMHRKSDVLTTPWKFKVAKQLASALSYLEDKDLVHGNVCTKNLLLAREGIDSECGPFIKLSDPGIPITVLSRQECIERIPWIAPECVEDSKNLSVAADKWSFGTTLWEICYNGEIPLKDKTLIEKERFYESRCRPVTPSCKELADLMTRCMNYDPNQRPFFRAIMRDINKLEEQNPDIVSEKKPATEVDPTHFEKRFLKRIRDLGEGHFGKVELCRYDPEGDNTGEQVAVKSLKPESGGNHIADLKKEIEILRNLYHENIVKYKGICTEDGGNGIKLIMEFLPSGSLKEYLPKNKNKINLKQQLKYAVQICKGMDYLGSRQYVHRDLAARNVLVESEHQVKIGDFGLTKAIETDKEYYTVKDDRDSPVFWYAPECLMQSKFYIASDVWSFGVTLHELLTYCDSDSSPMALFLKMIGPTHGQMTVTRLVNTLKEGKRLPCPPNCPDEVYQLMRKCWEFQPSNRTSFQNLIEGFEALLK

[6] = molecular target: Non-receptor tyrosine-protein kinase TNK1 (Homo sapiens) (UniProt Q13470); assay: Inhibition of N-terminal GST tagged human TNK1 (106 to 390 residues) catalytic domain expressed in baculovirus expression system at 1 uM in presence of ATP at its Km level relative to control
Non-receptor tyrosine-protein kinase TNK1 (Homo sapiens), sequence (Q13470 whole entry, the tested form may be a part): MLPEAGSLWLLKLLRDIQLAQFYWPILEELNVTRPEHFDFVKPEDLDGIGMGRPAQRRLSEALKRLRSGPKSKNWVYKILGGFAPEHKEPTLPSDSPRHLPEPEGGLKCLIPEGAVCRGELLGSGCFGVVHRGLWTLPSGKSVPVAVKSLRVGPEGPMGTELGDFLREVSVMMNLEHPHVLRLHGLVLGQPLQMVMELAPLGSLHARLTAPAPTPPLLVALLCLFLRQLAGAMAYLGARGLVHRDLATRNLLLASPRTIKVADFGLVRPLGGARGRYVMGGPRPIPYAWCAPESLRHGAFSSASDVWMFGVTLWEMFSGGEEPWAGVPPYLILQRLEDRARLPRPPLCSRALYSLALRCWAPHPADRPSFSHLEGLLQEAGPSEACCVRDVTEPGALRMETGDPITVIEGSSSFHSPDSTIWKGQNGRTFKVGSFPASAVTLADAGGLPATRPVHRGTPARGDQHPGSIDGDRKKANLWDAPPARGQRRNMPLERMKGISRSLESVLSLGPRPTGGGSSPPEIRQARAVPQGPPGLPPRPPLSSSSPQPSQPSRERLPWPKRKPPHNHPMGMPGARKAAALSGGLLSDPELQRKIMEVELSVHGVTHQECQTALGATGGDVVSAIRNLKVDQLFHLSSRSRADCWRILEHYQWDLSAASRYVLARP

[7] = molecular target: MAP kinase-interacting serine/threonine-protein kinase 2 (Homo sapiens) (UniProt Q9HBH9); assay: Inhibition of N-terminal GST tagged full length human MNK2 (1 to 465 end residues) expressed in baculovirus expression system at 1 uM in presence of ATP at its Km level relative to control
[8] = molecular target: Serine/threonine-protein kinase SIK2 (Homo sapiens) (UniProt Q9H0K1); assay: Inhibition of N-terminal GST tagged full length human QIK (1 to 926 end residues) expressed in baculovirus expression system at 1 uM in presence of ATP at its Km level relative to control
[9] = molecular target: Serine/threonine-protein kinase SIK1 (Homo sapiens) (UniProt P57059); assay: Inhibition of N-terminal GST tagged full length human SIK (1 to 783 end residues) expressed in baculovirus expression system at 1 uM in presence of ATP at its Km level relative to control
[10] = molecular target: Platelet-derived growth factor receptor beta (Homo sapiens) (UniProt P09619); assay: Inhibition of N-terminal GST tagged human PDGFRbeta (557 to 1106 end residues) cytoplasmic domain expressed in baculovirus expression system at 1 uM in presence of ATP at its Km level relative to control
[11] = molecular target: T1, Tyrosine-protein kinase JAK2; assay: Inhibition of N-terminal His tagged human JAK2 (826 to 1132 end residues) catalytic domain expressed in baculovirus expression system at 1 uM in presence of ATP at its Km level relative to control
[12] = molecular target: T3, Non-receptor tyrosine-protein kinase TYK2 (Homo sapiens, UniProt P29597); assay: Inhibition of N-terminal GST tagged human TYK2 (871 to 1187 end residues) catalytic domain expressed in baculovirus expression system at 1 uM in presence of 1 mM ATP relative to control
T3 sequence (P29597 whole entry, the tested form may be a part): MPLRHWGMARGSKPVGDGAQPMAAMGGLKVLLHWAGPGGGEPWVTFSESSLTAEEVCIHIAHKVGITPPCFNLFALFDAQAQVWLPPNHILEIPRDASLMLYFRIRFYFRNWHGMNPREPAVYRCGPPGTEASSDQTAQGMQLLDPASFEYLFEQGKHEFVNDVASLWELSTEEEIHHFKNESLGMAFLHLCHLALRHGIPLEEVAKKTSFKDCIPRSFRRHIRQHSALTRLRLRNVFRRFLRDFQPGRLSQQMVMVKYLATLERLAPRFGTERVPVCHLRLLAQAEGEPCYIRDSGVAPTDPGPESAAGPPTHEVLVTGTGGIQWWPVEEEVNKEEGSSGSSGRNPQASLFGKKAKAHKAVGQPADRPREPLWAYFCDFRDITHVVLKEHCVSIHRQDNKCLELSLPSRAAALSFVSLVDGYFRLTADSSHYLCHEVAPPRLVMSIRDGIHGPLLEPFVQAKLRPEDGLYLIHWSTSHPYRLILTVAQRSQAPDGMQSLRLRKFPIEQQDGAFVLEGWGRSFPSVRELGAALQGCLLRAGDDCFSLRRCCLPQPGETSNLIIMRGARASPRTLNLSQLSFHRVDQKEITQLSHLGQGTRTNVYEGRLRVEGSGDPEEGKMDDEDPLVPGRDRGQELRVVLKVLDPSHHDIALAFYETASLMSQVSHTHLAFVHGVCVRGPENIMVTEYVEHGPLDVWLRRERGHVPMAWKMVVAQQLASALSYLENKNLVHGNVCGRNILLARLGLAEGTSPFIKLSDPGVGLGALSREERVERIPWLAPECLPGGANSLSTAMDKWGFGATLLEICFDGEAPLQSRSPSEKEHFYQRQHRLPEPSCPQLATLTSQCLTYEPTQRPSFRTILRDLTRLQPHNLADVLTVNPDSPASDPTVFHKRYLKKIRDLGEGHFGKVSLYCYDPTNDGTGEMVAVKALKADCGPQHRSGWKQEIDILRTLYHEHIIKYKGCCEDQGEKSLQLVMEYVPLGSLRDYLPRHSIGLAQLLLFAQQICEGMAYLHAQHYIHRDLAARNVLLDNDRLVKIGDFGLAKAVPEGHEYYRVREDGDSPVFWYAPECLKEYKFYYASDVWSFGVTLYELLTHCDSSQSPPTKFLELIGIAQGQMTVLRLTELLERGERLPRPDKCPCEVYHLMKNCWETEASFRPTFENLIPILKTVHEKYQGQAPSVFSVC

Rattus norvegicus = assay: Antiarthritic activity in complete freund's adjuvant-induced Lewis rat arthritis model assessed as reduction in paw volume administered orally as once daily dose via gavage treated for 7 consecutive days by plethysmography; assay type: functional, organism-based
[13] = molecular target: Activated CDC42 kinase 1 (Homo sapiens) (UniProt Q07912); assay: Inhibition of N-terminal GST tagged human ACK (110 to 476 residues) catalytic domain expressed in baculovirus expression system at 1 uM in presence of ATP at its Km level relative to control
[14] = molecular target: NUAK family SNF1-like kinase 1 (Homo sapiens) (UniProt O60285); assay: Inhibition of N-terminal GST tagged full length human Nuak1 (1 to 661 end residues) expressed in baculovirus expression system at 1 uM in presence of ATP at its Km level relative to control
[15] = molecular target: T2, Tyrosine-protein kinase JAK1; assay: Inhibition of N-terminal GST tagged human JAK1 (850 to 1154 end residues) catalytic domain expressed in baculovirus expression system at 1 uM in presence of ATP at its Km level relative to control
[16] = molecular target: MAP/microtubule affinity-regulating kinase 3 (Homo sapiens) (UniProt P27448); assay: Inhibition of N-terminal GST tagged full length human MARK3 (1 to 729 end residues) expressed in baculovirus expression system at 1 uM in presence of ATP at its Km level relative to control
MAP/microtubule affinity-regulating kinase 3 (Homo sapiens), sequence (P27448 whole entry, looked up, the tested form may be a part): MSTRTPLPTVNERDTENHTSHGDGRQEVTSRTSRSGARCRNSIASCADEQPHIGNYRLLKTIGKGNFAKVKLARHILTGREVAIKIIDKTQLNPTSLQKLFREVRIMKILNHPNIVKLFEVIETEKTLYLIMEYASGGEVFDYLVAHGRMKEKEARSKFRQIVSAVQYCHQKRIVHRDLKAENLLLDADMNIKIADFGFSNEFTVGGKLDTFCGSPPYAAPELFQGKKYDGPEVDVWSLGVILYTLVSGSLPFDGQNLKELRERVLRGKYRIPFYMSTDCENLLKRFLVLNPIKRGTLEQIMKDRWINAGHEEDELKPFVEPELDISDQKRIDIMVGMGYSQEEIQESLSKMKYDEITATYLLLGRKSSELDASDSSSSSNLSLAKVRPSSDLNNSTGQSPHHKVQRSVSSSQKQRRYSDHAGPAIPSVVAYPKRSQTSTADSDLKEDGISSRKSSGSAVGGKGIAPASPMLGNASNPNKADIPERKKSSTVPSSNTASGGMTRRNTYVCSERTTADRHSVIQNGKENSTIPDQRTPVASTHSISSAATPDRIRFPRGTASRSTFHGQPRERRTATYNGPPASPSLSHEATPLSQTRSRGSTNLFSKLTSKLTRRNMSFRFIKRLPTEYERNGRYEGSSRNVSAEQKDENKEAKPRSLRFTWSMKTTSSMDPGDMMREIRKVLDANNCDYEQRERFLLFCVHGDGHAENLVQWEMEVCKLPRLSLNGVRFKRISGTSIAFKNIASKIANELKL

[17] = molecular target: Mitogen-activated protein kinase 7 (Homo sapiens) (UniProt Q13164); assay: Inhibition of N-terminal GST tagged human ERK5 (1 to 398 residues) cytoplasmic domain expressed in Escherichia coli at 1 uM in presence of ATP at its Km level relative to control
[18] = molecular target: Macrophage colony-stimulating factor 1 receptor (Homo sapiens) (UniProt P07333); assay: Inhibition of N-terminal GST tagged human FMS (538 to 972 end residues) cytoplasmic domain expressed in baculovirus expression system at 1 uM in presence of ATP at its Km level relative to control
[19] = system: Platelet-derived growth factor receptor alpha (Homo sapiens), P16234 [V561D]; assay: Inhibition of N-terminal GST tagged human PDGFRalpha (550 to 1089 end residues) catalytic domain V561D mutant expressed in baculovirus expression system at 1 uM in presence of ATP at its Km level relative to control
[20] = molecular target: Platelet-derived growth factor receptor alpha (Homo sapiens) (UniProt P16234); assay: Inhibition of N-terminal GST tagged human PDGFRalpha (550 to 1089 end residues) cytoplasmic domain expressed in baculovirus expression system at 1 uM in presence of ATP at its Km level relative to control
[21] = molecular target: Aurora kinase A (Homo sapiens) (UniProt O14965); assay: Inhibition of N-terminal GST tagged full length human AurA (1 to 403 end residues) expressed in baculovirus expression system at 1 uM in presence of ATP at its Km level relative to control
[22] = molecular target: T3, Non-receptor tyrosine-protein kinase TYK2; assay: Inhibition of N-terminal GST tagged human TYK2 (871 to 1187 end residues) catalytic domain expressed in baculovirus expression system at 1 uM in presence of ATP at its Km level relative to control
[23] = molecular target: Non-receptor tyrosine-protein kinase TNK1 (Homo sapiens) (UniProt Q13470); assay: Inhibition of N-terminal GST tagged human TNK1 (106 to 390 residues) catalytic domain expressed in baculovirus expression system at 1 uM in presence of 1 mM ATP relative to control
[24] = system: Platelet-derived growth factor receptor alpha (Homo sapiens), P16234 [T674I]; assay: Inhibition of N-terminal GST tagged human PDGFRalpha (550 to 1089 end residues) catalytic domain T674I mutant expressed in baculovirus expression system at 1 uM in presence of ATP at its Km level relative to control
[25] = Plasma clearance in Sprague-Dawley rat at 1 mg/kg, iv or 3 mg/kg, po; assay type: ADME, organism-based
[26] = AUC (0 to infinity) in Sprague-Dawley rat at 3 mg/kg, po; assay type: ADME, organism-based; set-up: dose 3 mg/kg, time infinity, route oral; details: in vivo
[27] = Cmin in complete freund's adjuvant-induced Lewis rat arthritis model plasma at 10 mg/kg, po qd administered via gavage treated for 7 consecutive days measured after 24 hrs post last dose; assay type: ADME, organism-based; details: read-out: Cmin
[28] = Cmax in complete freund's adjuvant-induced Lewis rat arthritis model plasma at 3 mg/kg, po qd administered via gavage treated for 7 consecutive days measured after 30 mins post last dose; assay type: ADME, organism-based; set-up: dose 3 mg/kg, route oral; details: in vivo, 0.5 h
[29] = Volume of distribution at steady state in Sprague-Dawley rat at 1 mg/kg, iv or 3 mg/kg, po; assay type: ADME, organism-based; details: in vivo, read-out: Vdss
[30] = Cmax in complete freund's adjuvant-induced Lewis rat arthritis model plasma at 30 mg/kg, po qd administered via gavage treated for 7 consecutive days measured after 30 mins post last dose; assay type: ADME, organism-based; set-up: dose 30 mg/kg, route oral
[31] = Cmax in Sprague-Dawley rat at 3 mg/kg, po; assay type: ADME, organism-based; set-up: dose 3 mg/kg, route oral; details: in vivo
[32] = Cmax in complete freund's adjuvant-induced Lewis rat arthritis model plasma at 10 mg/kg, po qd administered via gavage treated for 7 consecutive days measured after 30 mins post last dose; assay type: ADME, organism-based; set-up: dose 10 mg/kg, route oral
[33] = Cmin in complete freund's adjuvant-induced Lewis rat arthritis model plasma at 30 mg/kg, po qd administered via gavage treated for 7 consecutive days measured after 24 hrs post last dose; assay type: ADME, organism-based; details: read-out: Cmin
[34] = Cmin in complete freund's adjuvant-induced Lewis rat arthritis model plasma at 3 mg/kg, po qd administered via gavage treated for 7 consecutive days measured after 24 hrs post last dose; assay type: ADME, organism-based; details: read-out: Cmin
[35] = Oral bioavailability in Sprague-Dawley rat at 3 mg/kg; assay type: ADME, organism-based; details: in vivo

T1 sequence (O60674 whole entry, the tested form may be a part): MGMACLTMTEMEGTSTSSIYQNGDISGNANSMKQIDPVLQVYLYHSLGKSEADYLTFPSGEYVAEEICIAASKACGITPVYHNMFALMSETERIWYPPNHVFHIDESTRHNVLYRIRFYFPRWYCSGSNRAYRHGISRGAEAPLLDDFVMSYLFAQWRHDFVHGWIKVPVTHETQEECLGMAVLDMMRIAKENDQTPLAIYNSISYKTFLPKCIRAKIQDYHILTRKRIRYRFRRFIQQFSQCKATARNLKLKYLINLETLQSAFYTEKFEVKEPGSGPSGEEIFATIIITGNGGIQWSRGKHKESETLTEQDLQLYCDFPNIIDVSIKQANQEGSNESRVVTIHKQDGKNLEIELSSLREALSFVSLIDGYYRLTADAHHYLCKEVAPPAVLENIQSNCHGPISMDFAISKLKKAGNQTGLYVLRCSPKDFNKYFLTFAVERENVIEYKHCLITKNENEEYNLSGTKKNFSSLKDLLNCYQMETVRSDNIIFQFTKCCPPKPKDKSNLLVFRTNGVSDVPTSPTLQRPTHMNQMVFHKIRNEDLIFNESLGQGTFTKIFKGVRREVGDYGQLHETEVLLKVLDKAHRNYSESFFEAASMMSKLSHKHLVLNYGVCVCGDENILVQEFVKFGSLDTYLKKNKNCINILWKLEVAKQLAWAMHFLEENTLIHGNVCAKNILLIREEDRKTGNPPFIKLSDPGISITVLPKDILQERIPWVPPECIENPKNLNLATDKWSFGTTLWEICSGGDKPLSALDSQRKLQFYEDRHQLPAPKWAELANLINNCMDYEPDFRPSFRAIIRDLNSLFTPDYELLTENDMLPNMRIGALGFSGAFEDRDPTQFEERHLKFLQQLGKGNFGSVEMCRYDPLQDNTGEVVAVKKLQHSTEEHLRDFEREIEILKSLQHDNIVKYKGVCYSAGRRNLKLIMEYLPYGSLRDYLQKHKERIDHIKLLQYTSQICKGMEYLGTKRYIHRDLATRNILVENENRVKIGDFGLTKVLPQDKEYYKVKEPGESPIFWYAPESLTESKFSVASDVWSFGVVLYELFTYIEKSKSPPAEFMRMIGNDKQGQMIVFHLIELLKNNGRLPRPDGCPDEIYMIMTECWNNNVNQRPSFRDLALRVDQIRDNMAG

Cn1cc(Nc2nccc(N3CC4CC[C@H](C3)N4C(=O)[C@@H]3CC3(F)F)n2)cn1 (single isomer, unassigned) gave an inhibition [1] of 94%, an inhibition [2] of 92% and an inhibition [3] of 70%. It also gave an inhibition [4] of 59%, an inhibition [5] of 96% and an inhibition [6] of 94%. The inhibition [7] was 68%, the inhibition [8] was 91% and the inhibition [9] was 77%. The inhibition [10] was 66%, the inhibition [11] was 101% and the inhibition [12] was 98%. For the same compound, the Activity (Rattus norvegicus) was “Dose-dependent effect”, the inhibition [13] was 82% and the inhibition [14] was 60%. The inhibition [15] was 101%, the inhibition [16] was 50% and the inhibition [17] was 63%. For the same compound, the inhibition [18] was 59%, the inhibition [19] was 60% and the inhibition [20] was 70%. For the same compound, the inhibition [21] was 62%, the inhibition [22] was 101% and the inhibition [23] was 64%. It also gave an inhibition [24] of 78%.

Work on Cc1ccc(S(=O)(=O)O)cc1.Cn1cc(Nc2nccc(N3CC4CC[C@H](C3)N4C(=O)[C@@H]3CC3(F)F)n2)cn1 (single isomer, unassigned) yielded a clearance [25] of 31 mL/min/kg, an AUC(0-inf) [26] of 1340 ng·h/mL and a concentration at 24 h [27] of 60 nM. The Cmax [28] was 3540 nM, the Vd [29] was 2 L/kg and the Cmax [30] was 23900 nM. It also gave a Cmax [31] of 774 ng/mL, a Cmax [32] of 11000 nM and a concentration at 24 h [33] of 60 nM. It also gave a concentration at 24 h [34] of 22.1 nM and a bioavailability [35] of 83%.

Source: ChEMBL document CHEMBL4411260, “Dual Inhibition of TYK2 and JAK1 for the Treatment of Autoimmune Diseases: Discovery of (( S)-2,2-Difluorocyclopropyl)((1 R,5 S)-3-(2-((1-methyl-1 H-pyrazol-4-yl)amino)pyrimidin-4-yl)-3,8-diazabicyclo[3.2.1]octan-8-yl)methanone (PF-06700841)” (J Med Chem, 2018)
